Results taken from PubChem BioAssay AID248 (DTP/NCI, 2004).
Several values for one entry are separate records, joined by “and”; a condition that tells them apart may be missing. Equal values may be shown once. Inconclusive results and toxic doses are left out. Rule as the data show it: active = T/C of 150% or more; inactive = T/C below 125%.

Test system: L1210 leukemia ip in BDF1 mice, survival T/C
Test: NCI In Vivo Anticancer Drug Screen. Data for tumor model L1210 Leukemia (intraperitoneal) in B6D2F1 (BDF1) mice
Details: endpoint: mean survival time, higher = longer survival
In short: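 Tumor was transplanted into mice, which were then dosed with test compound or vehicle alone. Survival was recorded for each group, and the treated figure was expressed relative to the control figure.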

[1] = dose: 100.0 mg/kg/injection, schedule: Q01DX009 (ip), vehicle: Klucel (hydroxypropylcellulose) (HPC)
[2] = dose: 200.0 mg/kg/injection, schedule: Q01DX009 (ip), vehicle: Klucel (hydroxypropylcellulose) (HPC)
[3] = dose: 400.0 mg/kg/injection, schedule: Q01DX009 (ip), vehicle: Klucel (hydroxypropylcellulose) (HPC)
[4] = dose: 100.0 mg/kg/injection, schedule: Q01DX001 (ip), vehicle: Klucel (hydroxypropylcellulose) (HPC)
[5] = dose: 200.0 mg/kg/injection, schedule: Q01DX001 (ip), vehicle: Klucel (hydroxypropylcellulose) (HPC)
[6] = dose: 400.0 mg/kg/injection, schedule: Q01DX001 (ip), vehicle: Klucel (hydroxypropylcellulose) (HPC)
[7] = dose: 75.0 mg/kg/injection, schedule: Q01DX001 (ip), vehicle: other
[8] = dose: 150.0 mg/kg/injection, schedule: Q01DX001 (ip), vehicle: other
[9] = dose: 50.0 mg/kg/injection, schedule: Q01DX009 (ip), vehicle: saline
[10] = dose: 100.0 mg/kg/injection, schedule: Q01DX009 (ip), vehicle: saline
[11] = dose: 50.0 mg/kg/injection, schedule: Q01DX001 (ip), vehicle: saline
[12] = dose: 100.0 mg/kg/injection, schedule: Q01DX001 (ip), vehicle: saline
[13] = dose: 200.0 mg/kg/injection, schedule: Q01DX001 (ip), vehicle: saline
[14] = dose: 400.0 mg/kg/injection, schedule: Q01DX001 (ip), vehicle: saline
[15] = dose: 100.0 mg/kg/injection, schedule: Q04DX003 (ip), vehicle: saline
[16] = dose: 200.0 mg/kg/injection, schedule: Q04DX003 (ip), vehicle: saline
[17] = dose: 400.0 mg/kg/injection, schedule: Q04DX003 (ip), vehicle: saline
[18] = dose: 100.0 mg/kg/injection, schedule: Q01DX009 (ip), vehicle: saline with Tween-80
[19] = dose: 200.0 mg/kg/injection, schedule: Q01DX009 (ip), vehicle: saline with Tween-80
[20] = dose: 400.0 mg/kg/injection, schedule: Q01DX009 (ip), vehicle: saline with Tween-80
[21] = dose: 100.0 mg/kg/injection, schedule: Q04DX003 (ip), vehicle: saline with Tween-80
[22] = dose: 200.0 mg/kg/injection, schedule: Q04DX003 (ip), vehicle: saline with Tween-80

Measured: T/C

CC1CCN(C(=O)C(c2ccccc2)c2ccccc2)CC1
inactive: dose: 100.0 mg/kg/injection, schedule: Q04DX002 (ip), vehicle: Klucel (hydroxypropylcellulose) (HPC) 101 % of control | dose: 200.0 mg/kg/injection, schedule: Q04DX002 (ip), vehicle: Klucel (hydroxypropylcellulose) (HPC) 86 % of control | dose: 400.0 mg/kg/injection, schedule: Q04DX002 (ip), vehicle: Klucel (hydroxypropylcellulose) (HPC) 101 % of control

COc1ccccc1NC(=O)Nc1ccccc1C
inactive: [1] 96 % of control | dose: 100.0 mg/kg/injection, schedule: Q04DX003 (ip), vehicle: Klucel (hydroxypropylcellulose) (HPC) 94 % of control | [2] 89 % of control | dose: 200.0 mg/kg/injection, schedule: Q04DX003 (ip), vehicle: Klucel (hydroxypropylcellulose) (HPC) 100 % of control | [3] 94 % of control | dose: 400.0 mg/kg/injection, schedule: Q04DX003 (ip), vehicle: Klucel (hydroxypropylcellulose) (HPC) 90 % of control

c1ccc(CNc2ncnc3c2ncn3Cc2ccccc2)cc1
inactive: [4] 94 % of control | [5] 104 % of control | [6] 98 % of control

O=CN(N=O)c1ccccc1
inactive: [7] 104 % of control | [8] 97 % of control | dose: 300.0 mg/kg/injection, schedule: Q01DX001 (ip), vehicle: other 96 % of control and 104 % of control

CCN(CC)CCOC(=O)c1ccc(C(Cl)Cl)cc1
inactive: [9] 88 % of control | [10] 88 % of control

C1=C(c2ccccc2)N=C(c2ccccc2)C2C(c3ccccc3)N2C1c1ccccc1 (configuration not stated)
inactive: [4] 87 % of control | [5] 91 % of control

COc1cc(OC)cc(-n2cccc2)c1
inactive: dose: 100.0 mg/kg/injection, schedule: Q04DX002 (ip), vehicle: saline with Tween-80 90 % of control | dose: 200.0 mg/kg/injection, schedule: Q04DX002 (ip), vehicle: saline with Tween-80 97 % of control | dose: 400.0 mg/kg/injection, schedule: Q04DX002 (ip), vehicle: saline with Tween-80 87 % of control

OCC(O)C(O)C(O)C(O)C(c1ccccc1)c1ccccc1 (configuration not stated)
inactive: [11] 107 % of control | [12] 103 % of control | [13] 101 % of control | [14] 101 % of control

COc1cc2c(cc1OC(C)=O)C(=O)CCC=C2
inactive: [10] 113 % of control | dose: 100.0 mg/kg/injection, schedule: Q04DX003 (ip), vehicle: other 110 % of control | dose: 200.0 mg/kg/injection, schedule: Q01DX009 (ip), vehicle: saline 103 % of control | dose: 200.0 mg/kg/injection, schedule: Q04DX003 (ip), vehicle: other 115 % of control | dose: 400.0 mg/kg/injection, schedule: Q01DX009 (ip), vehicle: saline 95 % of control | dose: 400.0 mg/kg/injection, schedule: Q04DX003 (ip), vehicle: other 103 % of control

CCN(CC)CC(C)OC(=O)c1ccc(N)cc1 (configuration not stated)
inactive: [15] 103 % of control | [16] 101 % of control

CC(=O)C(C(c1ccccc1)N1CCCc2ccccc21)N1CCOCC1 (configuration not stated)
inactive: [1] 96 % of control | [2] 91 % of control | [3] 98 % of control

O=[N+]([O-])c1cc(Br)c(Br)cc1N1CCCC1
inactive: [15] 98 % of control | [16] 88 % of control | [17] 86 % of control

CC1(C)C=C2OC(=O)CCC2(C)CC1 (configuration not stated)
inactive: [4] 106 % of control | [18] 109 % of control | [5] 106 % of control | [19] 112 % of control | [6] 96 % of control | [20] 107 % of control

CCOC(=O)CCCCCCCCCC[N+](CC)(CC)CC(=O)c1ccc(NC(C)=O)cc1
inactive: [7] 96 % of control | [8] 101 % of control

O=C(NCCCl)NC1CCSc2ccccc21 (configuration not stated)
inactive: [21] 101 % of control | [22] 95 % of control

COc1cc2ccc(CN3CCCC3C(=O)OCc3ccccc3)cc2cc1OC (configuration not stated)
inactive: dose: 100.0 mg/kg/injection, schedule: Q01DX009 (ip), vehicle: saline sonified 100 % of control | dose: 100.0 mg/kg/injection, schedule: Q04DX003 (ip), vehicle: saline sonified 95 % of control | dose: 200.0 mg/kg/injection, schedule: Q01DX009 (ip), vehicle: saline sonified 96 % of control | dose: 200.0 mg/kg/injection, schedule: Q04DX003 (ip), vehicle: saline sonified 96 % of control | dose: 400.0 mg/kg/injection, schedule: Q01DX009 (ip), vehicle: saline sonified 91 % of control | dose: 400.0 mg/kg/injection, schedule: Q04DX003 (ip), vehicle: saline sonified 96 % of control

O=C(NCCCl)NC1CCCCC1O (configuration not stated)
inactive: dose: 100.0 mg/kg/injection, schedule: Q04DX002 (ip), vehicle: saline 98 % of control | dose: 200.0 mg/kg/injection, schedule: Q04DX002 (ip), vehicle: saline 91 % of control | dose: 400.0 mg/kg/injection, schedule: Q04DX002 (ip), vehicle: saline 102 % of control

O=C(OCCO)c1ccccc1
inactive: [18] 97 % of control | [15] 106 % of control | [19] 97 % of control | [16] 95 % of control | [20] 95 % of control | [17] 97 % of control

O=S1(=O)C(Cl)(Cl)SC(Cl)(Cl)S(=O)(=O)C1(Cl)Cl
inactive: dose: 12.5 mg/kg/injection, schedule: Q01DX009 (ip), vehicle: saline 101 % of control | dose: 25.0 mg/kg/injection, schedule: Q01DX009 (ip), vehicle: saline 93 % of control | [9] 101 % of control | dose: 50.0 mg/kg/injection, schedule: Q04DX003 (ip), vehicle: saline 93 % of control | [12] 96 % of control | [13] 98 % of control

COc1ccc2[nH]c3c(c2c1)CSc1ccccc1-3
inactive: [1] 110 % of control | [2] 104 % of control | [3] 94 % of control

O=C(c1ccccc1)C(Cc1ccccc1)C(Cc1ccccc1)c1ccccc1 (configuration not stated)
inactive: dose: 100.0 mg/kg/injection, schedule: Q04DX003 (ip), vehicle: acetone 93 % of control | dose: 200.0 mg/kg/injection, schedule: Q04DX003 (ip), vehicle: acetone 98 % of control | dose: 400.0 mg/kg/injection, schedule: Q04DX003 (ip), vehicle: acetone 92 % of control

O=C(Nc1cccc(Cl)c1)C1CCCC1=Nc1cccc(Cl)c1 (configuration not stated)
inactive: [11] 103 % of control | [12] 100 % of control | [13] 103 % of control | [14] 94 % of control

CNC(=O)CO
inactive: [15] 98 % of control | [16] 103 % of control | [17] 92 % of control

C=CC(C)C1CCC2(C)C3=C(C(=O)CC12C)C1(C)CCC(OC(C)=O)C(C)(C)C1=C(OC(C)=O)C3=O (configuration not stated)
inactive: [21] 91 % of control | [22] 91 % of control | dose: 400.0 mg/kg/injection, schedule: Q04DX003 (ip), vehicle: saline with Tween-80 87 % of control

C[C@]12CC[C@@H]3c4ccc(O)c([N+](=O)[O-])c4CC[C@H]3[C@@H]1CCC2=O
inactive: [1] 97 % of control | [2] 92 % of control

O=C(NCc1cnccn1)c1ccccc1
inactive: [18] 104 % of control | [19] 98 % of control | [20] 92 % of control
